In data set [1] the target is T1, GlyRS (Homo sapiens, UniProt P41250).
T1 construct: made in house; host or cells: E. coli BL21(DE3)
T1 sequence (P41250 37-739): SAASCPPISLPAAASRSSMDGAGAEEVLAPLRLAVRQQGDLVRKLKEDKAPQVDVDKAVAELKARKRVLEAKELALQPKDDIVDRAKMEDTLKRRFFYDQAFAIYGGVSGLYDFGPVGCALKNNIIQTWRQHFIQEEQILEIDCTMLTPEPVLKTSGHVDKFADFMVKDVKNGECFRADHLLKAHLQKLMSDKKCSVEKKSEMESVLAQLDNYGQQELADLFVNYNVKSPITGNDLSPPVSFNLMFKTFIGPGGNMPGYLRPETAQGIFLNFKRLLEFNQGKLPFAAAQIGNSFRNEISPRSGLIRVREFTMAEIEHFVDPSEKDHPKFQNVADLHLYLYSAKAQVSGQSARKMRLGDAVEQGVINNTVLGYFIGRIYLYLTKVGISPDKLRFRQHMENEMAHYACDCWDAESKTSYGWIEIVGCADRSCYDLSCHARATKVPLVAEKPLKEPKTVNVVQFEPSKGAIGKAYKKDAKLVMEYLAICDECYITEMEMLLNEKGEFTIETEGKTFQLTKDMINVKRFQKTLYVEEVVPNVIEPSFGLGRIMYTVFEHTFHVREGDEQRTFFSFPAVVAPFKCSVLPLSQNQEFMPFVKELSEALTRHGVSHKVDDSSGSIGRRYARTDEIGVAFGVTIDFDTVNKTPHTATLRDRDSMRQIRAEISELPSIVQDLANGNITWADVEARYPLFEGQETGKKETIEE
As to the kind of experiment: Enzyme inhibition assay (ATP consumption assay). In kind it is biochemical. As to conditions: for IC50: ATP consumption assay, mean ± SD. How it is done:
The ATP consumption assay was utilized to assess the enzymatic inhibitory activity of the compounds. The 30 μL reaction mixture consisted of 1 μM GlyRS, 25 μM ATP, 50 μM L-Glycine, 30 mM HEPES pH 7.5, 150 mM NaCl, 30 mM KCl, 40 mM MgCl2, and 0.1% bovine serum albumin (BSA), along with the corresponding concentrations of each compound. The reaction mixture was incubated at room temperature for 15 min. After incubation, 10 μL of the reaction reagent was transferred to a 384-well microplate, and the GlyRS enzyme activity was detected by adding 10 μL of the ATP Assay Kit (#S0026, Beyotime, Shanghai, China). Luminescence measurements were performed using a Synergy HTX multimode microplate Reader (BioTek Inc., Winooski, VT, USA). […]

Data set [2] addresses T1, GlyRS. Briefly: Fluorescence-based thermal shift assay (TSA). In kind it is binding. As to conditions: shift between Tm of GlyRS with and without compound. Here is the method:
Thermal shift assays were conducted using a StepOnePlus 7 Flex Real-Time Cycler (Applied Biosystems, Waltham, MA, USA). The Protein Thermal Shift™ Kit dye from Thermo Fisher Scientific was employed to monitor the thermal stability of the protein by binding to its exposed hydrophobic regions. In each well of a 96-well Optical Reaction Plate (Applied Biosystems), a solution containing 14 μL of protein thermal shift buffer, 2 μL of diluted thermal shift dye (8×), 2 μL small molecule solution at 1 mM, and 2 μL of protein at 1 mg/mL was added. The 96-well polymerase chain reaction plates were then placed in the Life Technologies system and incubated at 25 °C for 10 min. Subsequently, the samples were gradually heated from 25 °C to 95 °C at a rate of 1 °C/min. During the thermal denaturation of the protein, the fluorescence signal of SYPRO orange at 490/530 nm excitation/emission wavelengths was recorded by the instrument at 30 s intervals. The fluorescence signal was continuously monitored and plotted against the temperature, with the midpoint of the protein unfolding transition defined as the melting temperature (Tm). To ensure accuracy, triplicate experiments were performed. The ΔTm represents the shift in Tm value between the GlyRS treated with compounds and the blank control.

In data set [3] the target is T1, GlyRS. As to the kind of experiment: Bio-layer interferometry (BLI) binding assay. As to conditions: for Kdis / Kon: immobilized GlyRS. Here is the method: Binding experiments on the GlyRS proteins with various molecules were conducted using an Octet R8 system (ForteBio, Fremont, CA, USA). Purified His-tagged GlyRS proteins (500 μg/mL) were captured using Ni-NTA biosensors (ForteBio, Fremont, CA, USA), resulting in a saturation response of 4–5 nm after 300 s. Subsequently, the biosensors were immersed in diluted molecules (0.625–20 μM in assay buffer) for 120 s to measure the association signal, followed by transfer into Octet buffer to measure the dissociation signal for 100 s. Reference wells containing buffer instead of the tested compounds were included to correct for baseline shifts. A parallel set of Ni-NTA sensors immersed only in buffer served as negative reference controls to correct for nonspecific binding of the compounds to the biosensor surface. The signals were analyzed by a double reference subtraction protocol to deduce nonspecific and background signals and signal drifts caused by biosensor variability. All assays were performed by a standard protocol in 96-well black plates with a total volume of 200 μL/well at 30 °C. The generated data were analyzed using the Octet® Analysis Studio 12.2.2.26 for correction and curve fitting.
(BLI is a label-free optical method that tracks binding on a fibre tip over time.)

In data set [4] the test system is A/PuertoRico/8/34 (H1N1) (PR8 virus). In kind it is cell-based, Influenza A virus.
The target of data set [5] is T1, GlyRS. Briefly: Limited proteolysis analysis (trypsin, SDS-PAGE). As to conditions: trypsin at different concentrations, 1 h at 37 °C, versus unbound GlyRS.
Another data set can be described thus: in vitro. In kind it is cell-based. The conditions noted are these: human. Here is the method:
We then evaluated the antiviral effects of Lycobetaine and Scutellarein. To determine the optimal concentration of the small molecules, we used the CCK-8 assay to evaluate cell viability and estimate the CC50 value of the two drugs in A549 cells. In this experiment, the cells were exposed to varying concentrations of Lycobetaine and Scutellarein, and the CCK-8 reagent was added 24 h after drug treatment.

Where [6] appears, read: 1 μM GlyRS at 20 μM compounds, average of two independent experiments.
Setting [7] is: BLI, immobilized His-tagged GlyRS, mean ± SD, three repeats, read-out: KD.

Structures are written as SMILES. Read-outs that look alike come from different tables or passages of the source.

The Kd is a measure of binding affinity in units of concentration. As a reminder, the IC50 is the concentration at which inhibition is half-maximal. In general, CC50 refers to the concentration that lowers cell viability or growth by half. Low readings indicate harm at low concentration, high ones better tolerance by the cells.

In the case of `CC(C)c1cc2c(c(O)c1O)[C@@]1(C(=O)O)CCCC(C)(C)[C@@H]1CC2` [Carnosic acid], the “Relative Enzyme Activity” value on GlyRS [1] (setting [6]) was 75.4%. Also, at GlyRS [2], the “△Tm” value is −5.9 °C. Also, binding at GlyRS [3] was put at a Kd of 14.5 ± 0.19 µM. Moreover, at GlyRS [3] (BLI), the Kdis is listed as 1.12 ± 0.17 (1/s) × 10^−2 and the Kon is on record as 1.13 ± 0.26 (1/MS) × 10^3.

As for `Cc1ccc(S(=O)(=O)NCl)cc1` [Chloramine-T], the “Relative Enzyme Activity” value on GlyRS [1] (setting [6]) is listed as 86.9%. Further, the “△Tm” value at GlyRS [2] is −5.13 °C. This compound came in with a dissociation constant Kd on GlyRS [3] of 15.1 ± 1.8 µM. Further, on GlyRS [3] (BLI), the Kdis is 78.19 ± 17.95 (1/s) × 10^−2 and the Kon is given as 52.28 ± 13.31 (1/MS) × 10^3.

Regarding `Oc1c(I)cc(I)c2cccnc12` [Iodoquinol, reference compound], the Relative Enzyme Activity on GlyRS [1] (Figure 5K, bars A-J correspond to the compounds of panels A-J) was found to be 72.0%. Further, the “△Tm” value at GlyRS [2] is −11.97 °C. Also, on GlyRS [3] (BLI), the Kdis was 2.23 ± 0.49 (1/s) × 10^−2 and the Kon was 3.10 ± 0.51 (1/MS) × 10^3. Moreover, the Kd at GlyRS [3] (setting [7]) was 7.14 ± 0.41 µM.

With `Cc1c(OCC(F)(F)F)ccnc1C[S+]([O-])c1nc2ccccc2[nH]1` (centres unmarked) [Lansoprazole, reference compound], at GlyRS [1] (setting [6]), the “Relative Enzyme Activity” value came to 72.3%. The “△Tm” value on GlyRS [2] is −5.03 °C. Moreover, on GlyRS [3] (BLI), the Kdis was 9.25 ± 3.64 (1/s) × 10^−2 and the Kon was 7.23 ± 2.14 (1/MS) × 10^3. Moreover, at GlyRS [3] (setting [7]), the Kd was 12.5 ± 1.63 µM.

As for `Oc1cc2c3c(c1)c1cc4c(cc1c[n+]3CC2)OCO4` [Lycobetaine], the “viral infection rate / viral titer” value in data set [4] is “effectively reduced the viral infection rate”. The “protein conformation change of GlyRS (distribution of proteolyzed fragments)” value at GlyRS [5] was “alters the protein conformation of GlyRS”. For the same compound, the “Relative Enzyme Activity” value at GlyRS [1] (setting [6]) was found to be 8.0%. Also, at GlyRS [1], the half-maximal inhibitory concentration (IC50) stood at 0.11 ± 0.05 µM. In addition, the “△Tm” value on GlyRS [2] is −13.01 °C. Besides, the Kdis at GlyRS [3] (BLI) was 39.73 ± 11.18 (1/s) × 10^−2. Besides, the Kd on GlyRS [3] (setting [7]) is 43.5 ± 16.4 µM. The same compound gave a CC50 at 24 h in the data set “in vitro” of 16 ± 0.58 µM.

As for `C[C@@H]1C[C@H]2[C@@H]3CCC4=CC(=O)C=C[C@]4(C)[C@@]3(Cl)[C@@H](O)C[C@]2(C)[C@@]1(OC(=O)c1ccco1)C(=O)CCl` [Mometasone furoate, reference compound], the “Relative Enzyme Activity” value at GlyRS [1] (setting [6]) is listed as 91.2%. Besides, at GlyRS [2], the “△Tm” value was −11.58 °C. Besides, the Kon at GlyRS [3] (BLI) is 108.8 ± 67.42 (1/MS) × 10^3. Further, on GlyRS [3] (setting [7]), the Kd was found to be 1.82 ± 0.36 µM.

With `CC(=O)N[C@@H](C)C(=O)O` [N-Acetyl-L-alanine], the “Relative Enzyme Activity” value on GlyRS [1] (setting [6]) is 88.1%. Moreover, on GlyRS [2], the “△Tm” value came out at 5.96 °C. In addition, on GlyRS [3] (BLI), the Kdis is listed as 560 ± 194 (1/s) × 10^−2 and the Kon was 396.20 ± 85.48 (1/MS) × 10^3. For the same compound, the Kd on GlyRS [3] (setting [7]) is 24.9 ± 4.33 µM.

For the compound `COC(=O)C1=C(C)NC(C)=C(C(=O)OCC(C)C)C1c1ccccc1[N+](=O)[O-]` (centres unmarked) [Nisoldipine, reference compound], the “Relative Enzyme Activity” value at GlyRS [1] (setting [6]) turned out to be 67.3%. The “△Tm” value at GlyRS [2] is −8.96 °C. At GlyRS [3] (BLI), the Kdis is recorded as 400 ± 94.49 (1/s) × 10^−2 and the Kon is on record as 86.16 ± 27.50 (1/MS) × 10^3. Moreover, the Kd at GlyRS [3] (setting [7]) is 47.7 ± 7.18 µM.

As to `O=c1cc(-c2ccc(O)cc2)oc2cc(O)c(O)c(O)c12` [Scutellarein], in data set [4], the “viral infection rate / viral titer” value is given as “effectively reduced the viral infection rate”. Further, the “protein conformation change of GlyRS (distribution of proteolyzed fragments)” value at GlyRS [5] is listed as “did not show significant differences compared to unbounded GlyRS”. Moreover, the “Relative Enzyme Activity” value at GlyRS [1] (setting [6]) is 27.3%. Besides, the concentration for half-maximal inhibition (IC50) on GlyRS [1] was 2.22 ± 0.19 µM. For the same compound, on GlyRS [2], the “△Tm” value was −5.3 °C. Moreover, at GlyRS [3] (BLI), the Kdis is recorded as 1.09 ± 0.11 (1/s) × 10^−2 and the Kon is given as 3.96 ± 1.05 (1/MS) × 10^3. Moreover, the Kd on GlyRS [3] (BLI, mean ± SD, three repeats (Table 2), read-out: KD) came to 2.88 ± 0.83 µM. Further, the CC50 at 24 h in “in vitro” was 29.4 ± 0.76 µM.

With `COC[C@H]1C[C@@H](c2nc(-c3ccc4c(c3)COc3cc5c(ccc6nc([C@@H]7CC[C@H](C)N7C(=O)[C@@H](NC(=O)OC)C(C)C)[nH]c65)cc3-4)c[nH]2)N(C(=O)[C@H](NC(=O)OC)c2ccccc2)C1` [Velpatasvir, reference compound], on GlyRS [1] (setting [6]), the “Relative Enzyme Activity” value stood at 78.5%. Moreover, the “△Tm” value on GlyRS [2] is −5.4 °C. On GlyRS [3] (BLI), the Kdis is given as 18.46 ± 0.98 (1/s) × 10^−2 and the Kon was 15.80 ± 0.71 (1/MS) × 10^3. Besides, the Kd at GlyRS [3] (setting [7]) was determined as 11.7 ± 1.13 µM.

The record behind these values is paper PMC11988775, “Glycyl-tRNA Synthetase as a Target for Antiviral Drug Screening Against Influenza Virus” (International Journal of Molecular Sciences, 2025).
